Read-outs that look alike come from different tables or passages of the source.
Columns and labels:
Assay type in all cases: cell-based
GluN1/GluN2B receptors = target: T1, GluN1/GluN2B receptors (Rattus norvegicus, UniProt P35439+Q00960); experiment: Patch-clamp inhibition of glutamate responses of GluN1/GluN2B receptors in transfected HEK293 cells
T1 construct: expressed in transfected cells; host or cells: HEK293

GluN1/GluN2A receptors = target: T2, GluN1/GluN2A receptors (Rattus norvegicus, UniProt P35439+Q00959); experiment: Patch-clamp inhibition of GluN1/GluN2A receptors in transfected HEK293 cells; settings: 1 mM glutamate and 10 μM glycine
T2 construct: expressed in transfected cells; host or cells: HEK293
Protocol: (§1) FIGURE 7 Concentration–response properties of compound 6 on GluN1/GluN2A-D receptors. (A) Examples of traces obtained from HEK293 cells transfected with cDNAs encoding GluN1/GluN2A, GluN1/GluN2B, GluN1/GluN2C, and GluN1/GluN2D receptors. Agonists (1 mM glutamate and 10 μM glycine) were applied alone and simultaneously with compound 6 (10 μM) to evaluate the inhibitory effect of compound 6 on NMDAR mediated currents (duration of glutamate and steroid application is indicated by filled and open bars, respectively). (B) Concentration–response curves for the compound 6 effect at GluN1/GluN2A-D receptors. Data points are averaged values of normalized responses from at least four HEK293 cells. Error bars represent SD.
(§2) Electrophysiological experiments were performed on HEK293 cells transfected with plasmids encoding rat GluN1-1a/GluN2A-D and GFP genes as described previously, ([Petrovic et al., 2005]; [Cais et al., 2008]; [Korinek et al., 2010]) or on primary hippocampal neurons prepared from P0–P1 rats, plated on collagen/poly-D-lysine-coated glass coverslips at a density of ∼50,000 cells/cm^2, and grown in Neurobasal A medium with B27 Supplement (Gibco). Agonist-induced responses were voltage-clamped at a holding potential of −60 mV. […] Agonist-induced responses were low-pass filtered at 2 kHz, digitally sampled at 5 kHz, and analyzed with pClamp software version 10.5 (Molecular Devices). […]

GluN1/GluN2C receptors = target: T3, GluN1/GluN2C receptors (Rattus norvegicus, UniProt P35439+Q00961); experiment: Patch-clamp inhibition of GluN1/GluN2C receptors in transfected HEK293 cells; settings: 1 mM glutamate and 10 μM glycine
T3 construct: expressed in transfected cells; host or cells: HEK293
Protocol: as §1, §2

GluN1/GluN2D receptors = target: T4, GluN1/GluN2D receptors (Rattus norvegicus, UniProt P35439+Q62645); experiment: Patch-clamp inhibition of GluN1/GluN2D receptors in transfected HEK293 cells; settings: 1 mM glutamate and 10 μM glycine
T4 construct: expressed in transfected cells; host or cells: HEK293
Protocol: as §1, §2

T1 sequence (Q00960 27-1482, other chains not shown): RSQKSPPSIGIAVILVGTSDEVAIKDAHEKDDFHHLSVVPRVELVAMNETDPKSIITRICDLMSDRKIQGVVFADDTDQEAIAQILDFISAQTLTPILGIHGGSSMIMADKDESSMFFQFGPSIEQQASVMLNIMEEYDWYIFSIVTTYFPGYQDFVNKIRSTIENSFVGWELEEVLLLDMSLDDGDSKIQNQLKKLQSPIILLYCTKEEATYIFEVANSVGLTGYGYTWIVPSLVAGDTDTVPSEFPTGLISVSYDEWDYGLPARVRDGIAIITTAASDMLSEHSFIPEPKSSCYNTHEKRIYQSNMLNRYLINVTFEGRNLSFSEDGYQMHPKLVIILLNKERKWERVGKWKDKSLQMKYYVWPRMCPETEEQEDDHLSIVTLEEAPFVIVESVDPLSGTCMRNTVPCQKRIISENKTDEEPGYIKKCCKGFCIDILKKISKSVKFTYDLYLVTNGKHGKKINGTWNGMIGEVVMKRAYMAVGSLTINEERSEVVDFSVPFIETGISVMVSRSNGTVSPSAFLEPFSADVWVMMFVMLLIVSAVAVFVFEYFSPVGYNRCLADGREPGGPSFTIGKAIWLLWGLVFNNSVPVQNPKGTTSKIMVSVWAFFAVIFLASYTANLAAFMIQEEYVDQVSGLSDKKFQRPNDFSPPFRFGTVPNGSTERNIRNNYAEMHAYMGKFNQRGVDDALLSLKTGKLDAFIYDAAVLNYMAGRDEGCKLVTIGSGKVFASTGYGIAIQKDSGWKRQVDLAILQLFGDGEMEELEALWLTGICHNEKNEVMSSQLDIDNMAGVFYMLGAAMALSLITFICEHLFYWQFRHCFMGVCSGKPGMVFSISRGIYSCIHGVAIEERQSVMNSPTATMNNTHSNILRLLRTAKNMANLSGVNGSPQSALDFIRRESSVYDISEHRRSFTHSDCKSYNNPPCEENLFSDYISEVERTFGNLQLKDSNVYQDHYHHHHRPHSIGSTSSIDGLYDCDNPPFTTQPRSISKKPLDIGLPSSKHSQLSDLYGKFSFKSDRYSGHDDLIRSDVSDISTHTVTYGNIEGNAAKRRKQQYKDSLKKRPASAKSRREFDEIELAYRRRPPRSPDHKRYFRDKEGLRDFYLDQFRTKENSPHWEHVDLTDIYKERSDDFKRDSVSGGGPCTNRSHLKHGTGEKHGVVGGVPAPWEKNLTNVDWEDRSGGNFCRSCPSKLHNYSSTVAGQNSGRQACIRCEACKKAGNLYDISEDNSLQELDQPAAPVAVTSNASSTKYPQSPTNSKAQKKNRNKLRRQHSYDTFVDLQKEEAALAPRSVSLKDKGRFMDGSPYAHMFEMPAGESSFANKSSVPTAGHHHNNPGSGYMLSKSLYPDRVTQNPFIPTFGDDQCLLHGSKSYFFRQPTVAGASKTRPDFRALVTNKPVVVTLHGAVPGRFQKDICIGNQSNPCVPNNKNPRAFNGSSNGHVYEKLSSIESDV
T3 sequence (Q00961 20-1237, other chains not shown): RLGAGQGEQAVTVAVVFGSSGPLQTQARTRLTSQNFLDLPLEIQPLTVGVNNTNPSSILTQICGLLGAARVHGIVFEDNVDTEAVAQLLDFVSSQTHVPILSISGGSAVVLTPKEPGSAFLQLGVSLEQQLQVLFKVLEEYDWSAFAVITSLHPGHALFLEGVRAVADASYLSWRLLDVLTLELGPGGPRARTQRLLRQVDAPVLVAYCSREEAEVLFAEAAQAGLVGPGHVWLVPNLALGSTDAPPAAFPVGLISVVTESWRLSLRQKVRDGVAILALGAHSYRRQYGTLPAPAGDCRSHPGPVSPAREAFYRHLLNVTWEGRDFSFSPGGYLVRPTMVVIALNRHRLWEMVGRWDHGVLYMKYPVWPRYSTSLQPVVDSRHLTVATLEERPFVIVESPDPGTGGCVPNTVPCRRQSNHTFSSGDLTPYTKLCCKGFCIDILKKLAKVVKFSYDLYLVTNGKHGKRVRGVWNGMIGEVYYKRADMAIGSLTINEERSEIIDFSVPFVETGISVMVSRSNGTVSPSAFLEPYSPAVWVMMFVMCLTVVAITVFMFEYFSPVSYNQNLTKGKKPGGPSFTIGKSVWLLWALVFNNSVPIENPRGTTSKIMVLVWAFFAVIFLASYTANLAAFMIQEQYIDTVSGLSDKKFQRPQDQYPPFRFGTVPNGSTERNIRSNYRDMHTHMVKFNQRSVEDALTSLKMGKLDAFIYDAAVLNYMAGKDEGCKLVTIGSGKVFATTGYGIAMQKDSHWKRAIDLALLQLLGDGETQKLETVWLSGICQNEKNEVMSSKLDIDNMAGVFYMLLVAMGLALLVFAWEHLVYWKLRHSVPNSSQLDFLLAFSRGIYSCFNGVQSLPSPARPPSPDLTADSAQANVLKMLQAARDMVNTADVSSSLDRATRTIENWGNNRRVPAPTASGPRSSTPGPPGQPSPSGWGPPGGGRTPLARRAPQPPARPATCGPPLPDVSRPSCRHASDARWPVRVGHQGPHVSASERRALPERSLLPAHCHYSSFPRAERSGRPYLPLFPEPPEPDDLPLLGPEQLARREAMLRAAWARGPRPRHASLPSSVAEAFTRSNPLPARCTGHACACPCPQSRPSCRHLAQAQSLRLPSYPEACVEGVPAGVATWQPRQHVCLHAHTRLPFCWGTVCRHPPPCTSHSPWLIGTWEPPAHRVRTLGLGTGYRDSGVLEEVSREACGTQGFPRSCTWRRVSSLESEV
T2 sequence (Q00959 23-1464, other chains not shown): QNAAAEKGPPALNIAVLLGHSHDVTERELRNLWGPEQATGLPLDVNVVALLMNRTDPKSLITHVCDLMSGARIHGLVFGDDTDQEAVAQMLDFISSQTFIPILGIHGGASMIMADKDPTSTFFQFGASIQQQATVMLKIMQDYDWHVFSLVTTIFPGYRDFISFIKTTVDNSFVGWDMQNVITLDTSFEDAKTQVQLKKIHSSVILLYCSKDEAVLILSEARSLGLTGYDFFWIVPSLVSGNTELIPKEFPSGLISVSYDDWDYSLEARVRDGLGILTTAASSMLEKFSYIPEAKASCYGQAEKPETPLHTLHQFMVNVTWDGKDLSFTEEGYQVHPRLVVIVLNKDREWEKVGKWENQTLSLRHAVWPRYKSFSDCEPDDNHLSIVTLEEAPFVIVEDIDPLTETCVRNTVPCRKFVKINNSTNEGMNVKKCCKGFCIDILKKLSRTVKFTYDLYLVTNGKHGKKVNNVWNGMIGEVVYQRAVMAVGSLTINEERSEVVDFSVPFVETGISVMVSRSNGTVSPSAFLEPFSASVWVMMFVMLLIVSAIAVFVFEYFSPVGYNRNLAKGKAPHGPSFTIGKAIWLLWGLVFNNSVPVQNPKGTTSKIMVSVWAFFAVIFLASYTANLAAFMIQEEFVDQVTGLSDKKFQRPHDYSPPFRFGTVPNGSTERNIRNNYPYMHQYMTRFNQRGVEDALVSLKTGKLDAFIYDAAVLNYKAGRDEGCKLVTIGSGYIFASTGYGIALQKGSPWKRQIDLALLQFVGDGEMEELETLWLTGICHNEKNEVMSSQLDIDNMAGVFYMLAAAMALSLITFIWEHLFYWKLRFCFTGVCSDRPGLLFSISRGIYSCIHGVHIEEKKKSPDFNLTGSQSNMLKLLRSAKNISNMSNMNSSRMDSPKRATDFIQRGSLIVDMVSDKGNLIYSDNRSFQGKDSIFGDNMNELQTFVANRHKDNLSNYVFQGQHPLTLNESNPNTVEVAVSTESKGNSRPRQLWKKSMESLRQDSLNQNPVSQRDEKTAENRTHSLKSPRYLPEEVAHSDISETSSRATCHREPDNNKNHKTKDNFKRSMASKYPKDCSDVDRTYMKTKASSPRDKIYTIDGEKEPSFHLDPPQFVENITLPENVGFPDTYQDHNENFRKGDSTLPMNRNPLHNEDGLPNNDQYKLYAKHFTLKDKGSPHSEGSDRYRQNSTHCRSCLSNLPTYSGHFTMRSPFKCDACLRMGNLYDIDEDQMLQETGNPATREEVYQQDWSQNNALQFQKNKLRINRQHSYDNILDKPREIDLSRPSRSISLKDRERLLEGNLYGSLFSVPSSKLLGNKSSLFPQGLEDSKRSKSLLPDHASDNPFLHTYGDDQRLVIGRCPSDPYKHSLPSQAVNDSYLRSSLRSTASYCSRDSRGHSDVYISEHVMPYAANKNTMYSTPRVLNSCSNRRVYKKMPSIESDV

## C[C@@]12CCC[C@H]1[C@@H]1CC[C@@H]3C[C@H](NC(=O)[C@@H](N)CC(=O)O)CC[C@]3(C)[C@H]1CC2 [Compound 6, (S)-3-amino-4-(((3R,5R,8S,9S,10S,13S,14S)-10,13-dimethylhexadecahydro-1H-cyclopenta[a]phenanthren-3-yl)amino)-4-oxobutanoic acid]
GluN1/GluN2B receptors
  ΔGexp: -7.29 kcal/mol
GluN1/GluN2B receptors; 1 mM glutamate and 10 μM glycine
  h ± SD (apparent Hill coefficient): 1.3 ± 0.1
GluN1/GluN2B receptors; as repeated in Table 2, read-out: IC50
  IC50: 4.8 µM
GluN1/GluN2B receptors; concentration-response, 1 mM glutamate and 10 μM glycine, read-out: IC50 ±SD
  IC50: 7.4 ± 0.8 µM
GluN1/GluN2B receptors; current responses to glutamate, HEK293, IC50 from single steroid dose, Hill coefficient fixed at 1.2, read-out: IC50 ± SD
  IC50: 4.8 ± 0.9 µM
GluN1/GluN2A receptors
  h ± SD (apparent Hill coefficient): 1.3 ± 0.1
GluN1/GluN2A receptors; concentration-response
  IC50: 6.5 ± 0.7 µM
GluN1/GluN2C receptors
  h ± SD (apparent Hill coefficient): 1.6 ± 0.3
GluN1/GluN2C receptors; concentration-response
  IC50: 7.3 ± 0.8 µM
GluN1/GluN2D receptors
  h ± SD (apparent Hill coefficient): 1.6 ± 0.3
GluN1/GluN2D receptors; concentration-response
  IC50: 8.4 ± 1 µM

From article PMC6240685, “Strong Inhibitory Effect, Low Cytotoxicity and High Plasma Stability of Steroidal Inhibitors of N-Methyl-D-Aspartate Receptors With C-3 Amide Structural Motif” (Frontiers in Pharmacology, 2018)
